The source of these data is patent EP0537742B1, “Styrene derivatives” (Mitsubishi Chemical Corporation, priority 1991, dated 1993).

In data set [1] the test system is SKOV3 cell line. The data set can be described thus: Test on cancer cells in tissue culture (proliferation inhibition, MTT). The class given is cell-based. The settings on record: Homo sapiens, SK-OV-3, 72 h. The protocol:
Effect of the test material against the proliferation of cultivated cancer cells was examined with this SKOV3 cell line as follows:
SKOV3 cell was inoculated at a rate of 1 x 10^3 cell/well on a 96 well dish, and cultivated on a DMEM: F12 (1 : 1) medium containing 10% FCS and 0.1 mg/ml kanamycin at 37°C in a stream of 5% carbon dioxide for one day. Test material dissolved in DMSO was added to the medium (final concentration of DMSO was below 0.1%), which was cultivated for 3 days under the conditions mentioned above. Test material was replaced every 24 hours together with the medium.
Counting the number of living cells was effected by making colorimetric analysis at two wave length, 550 nm and 610 nm, in reference to the assaying method as described in Michael C. Alley et al., Cancer Research, 48, 589 (1988) using MTT reagent, and the number obtained was defined as "a".
At the same time, the count of the number of living cells obtained without adding the test material was assayed, and the number obtained was defined as "b".
Cell proliferation inhibitory rate was determined according to the following equation: Inhibitory Rate (%) = (b-a)/b x 100 [formula]

The target of data set [2] is T1, human EGF (epidermal cell growth factor) receptor tyrosine kinase (Homo sapiens, UniProt P00533).
T1 construct: A431 cell membrane fraction, which was provided for the assay as the partially purified EGF receptor, enzyme source; endogenous in cells; host or cells: A431 (human squamous cell carcinoma), crude membrane fraction (27500 x g pellet)
Nature of the data set: Tyrosine kinase activity inhibition (partially purified EGF receptor from A431 cell membrane fraction, RR-SRC peptide, 32P-ATP). The format is biochemical. The settings on record: for inhibition at 10 µM: read-out: Inhibitory Rate (%) in the presence of 10 µM; for inhibition at 1 µM: read-out: Inhibitory Rate (%) in the presence of 1 µM. On the procedure:
Detailed explanation of the assaying method will be given below.
A431 cells were cultivated in Dulbecco's modified Eagle's medium (DMEM) containing 10% fetal calf serum (FCS) at 37°C in a stream of 5% carbon dioxide, and the resultant cells were homogenized in a solution containing 10 mM N-2-hydroxyethylpiperazino-N'-2-ethanesulfonic acid (Hepes) buffer (pH 7.4), 0.25M sucrose and 0.1 mM EDTA and centrifuged at 1000 g for 5 minutes.
At that time the volume was 60 µl. The reaction was allowed to perform in ice for 30 minutes and stopped by adding 10 mg/ml bovine serum albumin (6 µl) and 20% trichloroacetic acid (25 µl). The mixture was allowed to stand in ice for 30 minutes.
Then the mixture was centrifuged at 5000 x g for 2 minutes, and the supernatant (40 µl) was sampled and adsorbed on P81 phosphocellulose paper. […] The count obtained was defined as "A". At the same time, counts of the reaction not containing the test material and the reaction not containing both the test material and EGF were assayed, and the resulted counts were defined as "B" and "C" respectively.

Data set [3] is described as follows: Toxicity test, intraperitoneal administration. The class given is in vivo, Mouse ddy (male). The protocol:
Toxicity test for the compounds of the present invention was examined in the manner as shown below. Test compound Compound No. 4 Test animal Mouse ddy (male) 16 - 20 g
Test compound was suspended in a mixture of 0.25% carboxymethyl cellulose, physiological saline, and a small amount of Tween 80 to give a test solution. This solution was administered intraperitoneally at dose of 0 mg/kg (control), 500 mg/kg and 1000 mg/kg to the test animal. Change of the body weight was measured 3 days later.

Where [4] appears, read: Table 5: Proliferation Inhibitory Effect Against Cultivated Cells, 3 days, read-out: IC50.
Where [5] appears, read: Tyrosine Kinase Activity Inhibitory Effect, test material 10 µM.

Like-named read-outs stand apart in the source and are kept apart here.

T1 sequence (P00533 25-1210): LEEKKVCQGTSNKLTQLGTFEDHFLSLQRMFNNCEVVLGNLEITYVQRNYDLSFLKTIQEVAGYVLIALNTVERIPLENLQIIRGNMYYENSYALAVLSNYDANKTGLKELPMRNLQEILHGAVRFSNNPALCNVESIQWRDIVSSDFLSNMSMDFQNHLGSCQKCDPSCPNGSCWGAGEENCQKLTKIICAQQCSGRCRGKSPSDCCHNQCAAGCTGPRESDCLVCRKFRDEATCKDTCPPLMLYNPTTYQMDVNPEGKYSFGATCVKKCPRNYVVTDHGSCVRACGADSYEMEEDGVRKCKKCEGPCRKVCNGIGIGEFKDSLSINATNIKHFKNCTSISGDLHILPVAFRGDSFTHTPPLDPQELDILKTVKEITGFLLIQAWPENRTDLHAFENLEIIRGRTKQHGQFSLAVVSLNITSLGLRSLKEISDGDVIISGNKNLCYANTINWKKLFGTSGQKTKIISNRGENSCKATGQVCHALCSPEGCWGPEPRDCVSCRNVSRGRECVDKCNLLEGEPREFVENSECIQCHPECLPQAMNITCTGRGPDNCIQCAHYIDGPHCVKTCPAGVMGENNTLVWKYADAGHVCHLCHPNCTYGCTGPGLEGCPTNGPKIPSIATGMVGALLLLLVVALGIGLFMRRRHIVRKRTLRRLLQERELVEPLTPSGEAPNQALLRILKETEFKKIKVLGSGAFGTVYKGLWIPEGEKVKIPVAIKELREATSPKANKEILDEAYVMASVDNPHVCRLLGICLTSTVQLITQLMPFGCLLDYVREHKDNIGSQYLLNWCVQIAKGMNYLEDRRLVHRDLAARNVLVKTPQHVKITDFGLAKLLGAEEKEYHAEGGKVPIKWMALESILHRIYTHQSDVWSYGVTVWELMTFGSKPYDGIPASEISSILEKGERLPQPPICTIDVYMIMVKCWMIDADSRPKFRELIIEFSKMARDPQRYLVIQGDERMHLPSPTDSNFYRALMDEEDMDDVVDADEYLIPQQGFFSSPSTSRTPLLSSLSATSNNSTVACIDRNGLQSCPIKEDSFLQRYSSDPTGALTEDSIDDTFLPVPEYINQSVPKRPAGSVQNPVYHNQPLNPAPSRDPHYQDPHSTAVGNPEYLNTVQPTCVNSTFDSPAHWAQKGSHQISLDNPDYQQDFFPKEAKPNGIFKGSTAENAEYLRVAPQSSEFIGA
T1 sequence (P01133 971-1023 partner limits assumed): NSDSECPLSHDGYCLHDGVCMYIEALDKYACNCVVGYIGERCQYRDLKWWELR

With `COc1cc(C=C(C#N)C(=O)Nc2ccccc2)cc(Cl)c1O` [Compound No. 1, 2-cyano-3-(3-chloro-4-hydroxy-5-methoxyphenyl) propeneanilide], in data set [1] (setting [4]), the IC50 (usually the concentration needed to halve the response being measured) worked out at 17.3 µM. Also, the inhibition at 10 µM in data set [2] was 63%.
For `N#CC(=Cc1cc(O)c(O)c(Cl)c1)C(=O)Nc1ccccc1` [Compound No. 2, 2-cyano-3-(3-chloro-4,5-dihydroxyphenyl)propenanilide], in that order: 20.4 µM and 74%.
Consider `N#CC(=Cc1cc(O)c(O)c(Cl)c1)C(=O)Nc1cccc(Cl)c1` [Compound No. 4, N-(3-chlorophenyl)-2-cyano-3-(3-chloro-4,5-dihydroxyphenyl) propenamide], for which the dead case result in data set [3] (500 mg/kg intraperitoneally) and in data set [3] (1000 mg/kg intraperitoneally) was “No dead case was observed” in each case. The IC50 in data set [1] (setting [4]) stood at 21.6 µM.
With `N#CC(=Cc1cc(O)c(O)c(Br)c1)C(=O)Nc1cccc(Cl)c1` [Compound No. 6, N-(3-chlorophenyl)-2-cyano-3-(3-bromo-4,5-dihydroxyphenyl) propenamide], the IC50 in data set [1] (setting [4]) turned out to be 21 µM.
For the compound `COc1cc(C=C(C#N)C(=O)Nc2cccc(Cl)c2)cc(F)c1O` [Compound No. 7, N-(3-chlorophenyl)-2-cyano-3-(3-fluoro-4-hydroxy-5-methoxyphenyl) propenamide], the inhibition at 1 µM in data set [2] stood at 41%.
Consider `N#CC(=Cc1cc(O)c(O)c(F)c1)C(=O)Nc1cccc(Cl)c1` [Compound No. 8, N-(3-chlorophenyl)-2-cyano-3-(3-fluoro-4,5-dihydroxyphenyl) propenamide], for which the IC50 in data set [1] (setting [4]) stood at 23.4 µM. Besides, in data set [2], the inhibition at 1 µM is 78%.
For `N#CC(=Cc1cc(O)c(O)c(Br)c1Br)C(=O)Nc1cccc(Cl)c1` [Compound No. 9, N-(3-chlorophenyl)-2-cyano-3-(2,3-dibromo-4,5-dihydroxyphenyl) propenamide], in data set [1] (setting [4]), the IC50 was 17 µM.
In the case of `N#CC(=Cc1ccc(O)c(O)c1)C(=O)Nc1ccc(Br)cc1` [Compound No. 10, N-(4-bromophenyl)-2-cyano-3-(3,4-dihydroxyphenyl) propenamide], in data set [2] (setting [5]), the inhibition at 10 µM came to 47%.
On the same count and under the same terms, the result for `N#CC(=Cc1ccc(O)c(O)c1)C(=O)Nc1cccc(Br)c1` [Compound No. 11, N-(3-bromophenyl)-2-cyano-3-(3,4-dihydroxyphenyl) propenamide] reads 77%.
`N#CC(=Cc1ccc(O)c(O)c1)C(=O)Nc1ccc(Cl)cc1` [Compound No. 12, N-(4-chlorophenyl)-2-cyano-3-(3,4-dihydroxyphenyl) propenamide]: the inhibition at 10 µM in data set [2] (setting [5]) worked out at 52%.
`N#CC(=Cc1ccc(O)c(O)c1)C(=O)Nc1cccc(Cl)c1` [Compound No. 13, N-(3-chlorophenyl)-2-cyano-3-(3,4-dihydroxyphenyl) propenamide]: the IC50 in data set [1] (setting [4]) was determined as 30 µM. In addition, in data set [2], the inhibition at 1 µM is 46% and the inhibition at 10 µM worked out at 100%.
`Cc1cccc(NC(=O)C(C#N)=Cc2ccc(O)c(O)c2)c1` [Compound No. 14, N-(3-methylphenyl)-2-cyano-3-(3,4-dihydroxyphenyl) propenamide]: the inhibition at 10 µM in data set [2] was found to be 77%.
As for `N#CC(=Cc1cc(O)c(O)c(C#N)c1)C(=O)Nc1cccc(Cl)c1` [Compound No. 15, N-(3-chlorophenyl)-2-cyano-3-(3-cyano-4,5-dihydroxyphenyl) propenamide], the IC50 in data set [1] (setting [4]) came to 34 µM.
Same read-out and setting: next, `N#CC(=Cc1cc(O)c(O)cc1[N+](=O)[O-])C(=O)Nc1cccc(Cl)c1` [Compound No. 16, N-(3-chlorophenyl)-2-cyano-3-(4,5-dihydroxy-2-nitrophenyl) propenamide]: 24 µM; `N#CC(=Cc1cc(O)c(O)c(C(F)(F)F)c1)C(=O)Nc1cccc(Cl)c1` [Compound No. 98, N-(3-chlorophenyl)-2-cyano-3-[3,4-dihydroxy-5-(trifluoromethyl)phenyl] propenamide]: 16 µM.
The same measure, in the same setting: the result for `N#CC(C(=O)Nc1ccccc1)=C(O)c1ccc(O)c(O)c1` [Compound No. 119, 2-cyano-3-hydroxy-3-(3,4-dihydroxyphenyl) propenanilide] reads 24 µM.
For the compound `N#CC(=Cc1ccc(O)c(O)c1)C(=O)Nc1ccccc1` [Reference 1), reference compound], half-maximal inhibition in data set [1] (IC50) was put at 35 µM.
In the case of `CCOc1cc(C=C(C#N)C(N)=O)cc(CSc2ccccc2)c1O` [Reference 2), reference compound], in data set [1] (setting [4]), the IC50 came to 78 µM.
The compound `O=CNC=Cc1ccc(O)c(O)c1` [Reference 3), reference compound] had an IC50 in data set [2] (Table 3, tyrosine kinase inhibition) of 12 µM.
Regarding `N#CC(=Cc1cc(Br)c(O)c(Br)c1)C(=O)Nc1cccc(Cl)c1` [compound 100], the IC50 in data set [1] (setting [4]) amounted to 19 µM.
On the same count and under the same terms, the result for `COc1cc(C=C(C#N)C(=O)Nc2ccccc2)cc(Br)c1O` [compound 105] reads 13 µM.
The same measure, in the same setting: next, `Cc1cc(C=C(C#N)C(=O)Nc2cccc(Cl)c2)cc(O)c1O` [compound 110]: 14 µM.
